# Measurements taken from patent publication US20090264528A1, “SERINE PALMITOYLCOA TRANSFERASE (SPT) INHIBITION BY MYRIOCIN OR GENETIC DEFICIENCY DECREASES CHOLESTEROL ABSORPTION” (The Research Foundation of State University of New York, priority 2008, published 2009).
# What was measured:
# [1] = system: apical membrane SM of small intestine segments; assay: In situ lysenin treatment and cell mortality measurement (WST-1); assay type: cell-based, mouse; settings: jejunum segments from myriocin-treated WT mice, 5 microg/ml lysenin, 30 minutes
# Description: FIGS. 7A-B depict several graphs that illustrate that SPT deficiency decreased SM levels on the apical surface of mouse small intestine. Small intestines were turned inside-out and cut into 0.5 cm of segments from jejunum. The segments were then bathed in 0.5 ml of oxygenated DMEM containing 5% glutamine with 5 microg/ml lysenin or without it as control, at 37 degrees C. for 30 minutes. Then 0.05 ml of WST-1 cell proliferation reagent were added and continuously incubated at 37 degrees C. for 15 minutes. After incubation, solutions were transferred to an Eppendorf tube and quick-spun at maximum speed to pellet cell debris. Supernatants were read OD at 450 nm, a reading for viable cells. Background reading was the WST-1 reagent with no cell treatment. […]
# In situ lysenin treatment and cell mortality measurement: Overnight-fasted mice were anesthetized and small intestines were isolated from WT animals with or without myriocin treatment, as well as sptlc1 KO and control mice. […] Supernatant was then measured OD at 450 nm, a reading for viable cells (WST-1 reagent with no cell incubation being the background reading). […]
# Second, lysenin, a SM-specific cytotoxin, was used to measure apical membrane SM levels, since lysenin can recognize SM only when it forms aggregates or microdomains in the plasma membranes. […] Cell viability in tissue segments was measured by adding WST-1 cell proliferation reagent.
# NPC1L1 = assay: Western blot of small intestine homogenates, NPC1L1; assay type: in vivo, mouse; settings: WT and apoE KO mice, compared with nontreated animals
# Description: FIG. 8 depicts that SPT deficiency decreased NPC1L1 and ABCA1, and increased ABCG5 in mouse small intestine. Tissue homogenates were prepared as described in Methods, and equal amounts of homogenates from each mouse were pooled in each group (n=5). A total of 50 microg pooled sample from each group was immunoblotted with antibodies against NPC1L1, ABCA1, and ABCG5. Immunoblots of beta (β)-actin were used as a loading control.
# Preparation and Western blot analysis of small intestine homogenates: A total of 50-100 mg of small intestine sample was homogenized and lysed proteins were immunoblotted, as previously described, (3) with a polyclonal rabbit antihuman NPC1L1 antiserum 69B, a polyclonal rabbit antimouse ABCG5 antiserum, a polyclonal antimouse ABCA1 antibody, and a monoclonal mouse anti-(beta)β-actin antibody.
# Next, Western blot measurements of NPC1L1 and ABCG5/G8 were completed, where the measurement were located in apical membranes of the enterocytes. […] Also, ABCA1 was measured, which is located in the basal membranes of the enterocytes and is involved in cholesterol secretion.
# ABCG5 mRNA = assay: Real-time PCR, ABCG5 mRNA; assay type: in vivo, mouse; settings: for increase of ABCG5 mRNA levels compared with controls: small intestine, P<0.01
# Description: (§1) FIGS. 9A-F depict that Mouse small intestine and liver NPC1L1, ABCG5/G8, and ABCA1 mRNA measurements. NPC1L1, ABCG5/G8, and ABCA1 mRNA levels were measured by real-time PCR as described in “Methods and Materials.” FIG. 9A, jejunum from WT mice with or without myriocin treatment; FIG. 9B, jejunum from apoE KO mice with or without myriocin treatment; FIG. 9C, jejunum from WT and Sptlc1^+/− mice; FIG. 9D, liver from WT mice with or without myriocin treatment; FIG. 9E, liver from apoE KO mice with or without myriocin treatment; FIG. 9F, liver from WT and Sptlc1^+/− mice. Values are mean±SD, n=5. *P<0.01.
# (§2) Real-time PCR examined genes' expression: Mice were sacrificed by cervical dislocation. Jejunum was dissected, and total RNA extracted with Trizol (Invitrogen). cDNA was synthesized with an Invitrogen kit. Polymerase chain reaction (PCR) was performed on a total volume of 20 microl with the sybergreen kit from Applied Biosystems, 18S being used as an internal control. The amplification program consisted of activation at 95 degrees C. for 10 minutes, followed by 40 amplification cycles: 95 degrees C. for 15 seconds, 60 degrees C. for 1 minute. Each sample was triplicated. The genes' relative expression was expressed as mean±SD. The primers are located in the below table which lists the name, sequence, and sequence identification number.
# (§3) For further elucidation of the possible mechanisms for cholesterol absorption reduction in the SPT-deficient small intestine, NPC1L1, ABCG5/G8, and ABCA1 mRNA levels in myriocin-treated WT, apoE KO, and Sptlc1^+/− mice, as well as in controls were measured. […] Moreover, intestinal MTP activity was not influenced by SPT deficiency (data not shown). Also, the liver mRNA levels were measured to find that myriocin treatment or Sptlc1 deficiency has no influence on ABCG5/G8 mRNA levels […]. […] NPC1L1 mRNA in WT or Sptlc1^+/− livers were not detected (data not shown).
# ABCG8 mRNA = assay: Real-time PCR, ABCG8 mRNA; assay type: in vivo, mouse; settings: for increase of ABCG8 mRNA levels compared with controls: small intestine, P<0.01
# Description: as §1, §2, §3
compound,measurement,setting,value
"CCCCCCC(=O)CCCCCC/C=C/C[C@@H](O)[C@H](O)[C@@](N)(CO)C(=O)O [Myriocin, myriocin]",sensitivity to lysenin-mediated cytolysis vs controls,[1],significantly less sensitivity
same,NPC1L1 protein mass in small intestine,NPC1L1,significantly decreased
same,ABCG5 mRNA levels (printed ABCG5/G8),ABCG5 mRNA; liver,no influence
same,increase of ABCG5 mRNA levels compared with controls,ABCG5 mRNA; WT mice,52%
same,increase of ABCG5 mRNA levels compared with controls,ABCG5 mRNA; apoE KO mice,69%
same,ABCG8 mRNA levels (printed ABCG5/G8),ABCG8 mRNA; liver,no influence
same,increase of ABCG8 mRNA levels compared with controls,ABCG8 mRNA; WT mice,46%
same,increase of ABCG8 mRNA levels compared with controls,ABCG8 mRNA; apoE KO mice,63%
